Reference: US20240238305A1, “FORMULATIONS OF 3-((3-(4-(2-(ISOBUTYLSULFONYL)PHENOXY)-3-(TRIFLUOROMETHYL)PHENYL)-1,2,4-OXADIAZOL-5-YL)METHYL)-5,5-DIMETHYL-1-(2-MORPHOLINOETHYL)IMIDAZOLIDINE-2,4-DIONE” (Novartis AG, priority 2021, published 2024)

Tests used:
[1] = system: SCD1; assay: Measurement of SCD1 expression in SZ95-SCD1-HiBit cells (HiBiT assay); type: cell-based, human
Protocol: SCD1 expression levels in SZ95 cells were quantitated using the HiBiT system (Promega) in which a small peptide sequence (SmBiT) with a larger protein (LgBiT) reconstitutes luciferase activity and can generate a luminescent signal used for quantitation. […] The gRNA targeting sequence used was […] (SEQ ID NO: 3) and the SCD1 insertion oligonucleotide encoding the SmBiT sequence was:
SZ95-SCD1-HiBit cells were seeded in 384-well cell culture white plates at a density of 3000 cells/[…]. Water was added to edge wells to avoid evaporation. Cells were incubated in a humidified incubator with 5% CO2 at 37° C. overnight. Tested compounds were diluted at a ratio of 1:3 in DMSO using an Agilent BRAVO Automated Liquid Handling Platform and, after further serial dilutions, added to cells at final concentrations starting from 18 μM. 2-(3-(3-((2-chloro-3-(trifluoromethyl)benzyl)(2,2-diphenylethyl)amino)propoxy)phenyl)acetic acid was used as a reference compound in each plate. Cells in the assay plate were incubated in a humidified incubator with 5% CO2 at 37° C. for 48h.
The assay plates were removed from the incubator and allowed to equilibrate to room temperature. […] Plates were placed on an orbital shaker at a speed of 300-600 rpm for 10 min at room temperature, and read on an EnVision Plate Reader using luminescence detection with a 1 second read time. […]

[2] = system: SZ95 sebocytes; assay: Sentinel Lipid Assay (SLA), global desaturation index; type: cell-based, human
Protocol: The sentinel lipid assay was used quantify the change in the global desaturation index in SZ95 sebocytes upon administration of Compound 1. The assay measures a smaller subset of lipid analytes in meibum (termed “sentinel lipids”) which would model the global changes the population of both saturated and desaturated lipids in the cells. In order to define this smaller subset of lipids, a complete lipid profile was recorded on dose response curves (eight levels from 4 nM to 10 uM) of Compound 1. […]
A medium throughput assay was created using this reduced set of sentinel lipids. […] Lipids were extracted from the cells using a 1:1 mixture of methylene chloride/methanol containing 10 nM of deuterated standards of triglycerides, which are used as internal standards for quantitating the lipid abundance. […] The abundance of the sentinel lipids and the internal standards are measured using multiple reaction monitor mode (MRM) on a triple quadrupole mass spectrometer. […] In order to compare compounds from multiple batches with one another, the measure raw desaturation index was normalized by dividing it by the desaturation index of the DMSO dosed cells, and all data was assessed as the fraction by which the compound increases the desaturation index above 1. […]

[3] = normalized to reference compound Amax of 100%

## O=C(O)Cc1cccc(OCCCN(Cc2cccc(C(F)(F)F)c2Cl)CC(c2ccccc2)c2ccccc2)c1 [Reference, 2-(3-(3-((2-chloro-3-(trifluoromethyl)benzyl)(2,2-diphenylethyl)amino)propoxy)phenyl)acetic acid]
[1]; SZ95-SCD1-HiBit cells, 48h, compared to reference compound
  HiBit Amax: 95.1
[1]; [3]
  HiBit Normalized Amax: 100.0%
[2]; SZ95 cells, 72h, compared to reference compound
  SLA Amax: 96.0
[2]; [3]
  SLA Normalized Amax: 100.0%
